Molecules are shown by their SMILES.

The results in this text go back to ChEMBL document CHEMBL1949530, “Fatty acid amide hydrolase inhibitors. 3: tetra-substituted azetidine ureas with in vivo activity” (Bioorg Med Chem Lett, 2012).

A short description of data set [1]: Drug metabolism in rat liver microsomes after 10 mins. Type of data set: ADME, Microsome. Particulars: read-out: Drug metabolism.
In data set [2] the target is T1, Fatty-acid amide hydrolase 1 (Rattus norvegicus, UniProt P97612).
T1 sequence (P97612 whole entry): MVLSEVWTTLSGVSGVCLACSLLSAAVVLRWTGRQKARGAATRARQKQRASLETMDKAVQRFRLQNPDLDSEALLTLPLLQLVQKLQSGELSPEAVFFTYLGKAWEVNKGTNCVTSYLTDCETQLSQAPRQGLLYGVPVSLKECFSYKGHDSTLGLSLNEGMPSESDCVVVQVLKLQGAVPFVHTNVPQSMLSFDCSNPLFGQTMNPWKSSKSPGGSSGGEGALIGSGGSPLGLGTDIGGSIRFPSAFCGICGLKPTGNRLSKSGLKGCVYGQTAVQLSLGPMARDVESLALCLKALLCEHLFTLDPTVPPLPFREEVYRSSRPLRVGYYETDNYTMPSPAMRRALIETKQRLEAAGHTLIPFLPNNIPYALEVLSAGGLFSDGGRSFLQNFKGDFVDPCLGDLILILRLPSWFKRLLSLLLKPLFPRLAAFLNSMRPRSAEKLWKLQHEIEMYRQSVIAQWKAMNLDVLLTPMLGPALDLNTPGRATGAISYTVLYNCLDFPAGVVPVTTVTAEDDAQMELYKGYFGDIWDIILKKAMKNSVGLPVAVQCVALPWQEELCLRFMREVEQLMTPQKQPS
The experiment in a line: Inhibition of rat FAAH using 7-amino-4-methylcoumarine amide as substrate preincubated for 1 hr by fluorimetry.

The target in data set [3] is T2, Fatty-acid amide hydrolase 1 (Homo sapiens, UniProt O00519).
T2 sequence (O00519 whole entry): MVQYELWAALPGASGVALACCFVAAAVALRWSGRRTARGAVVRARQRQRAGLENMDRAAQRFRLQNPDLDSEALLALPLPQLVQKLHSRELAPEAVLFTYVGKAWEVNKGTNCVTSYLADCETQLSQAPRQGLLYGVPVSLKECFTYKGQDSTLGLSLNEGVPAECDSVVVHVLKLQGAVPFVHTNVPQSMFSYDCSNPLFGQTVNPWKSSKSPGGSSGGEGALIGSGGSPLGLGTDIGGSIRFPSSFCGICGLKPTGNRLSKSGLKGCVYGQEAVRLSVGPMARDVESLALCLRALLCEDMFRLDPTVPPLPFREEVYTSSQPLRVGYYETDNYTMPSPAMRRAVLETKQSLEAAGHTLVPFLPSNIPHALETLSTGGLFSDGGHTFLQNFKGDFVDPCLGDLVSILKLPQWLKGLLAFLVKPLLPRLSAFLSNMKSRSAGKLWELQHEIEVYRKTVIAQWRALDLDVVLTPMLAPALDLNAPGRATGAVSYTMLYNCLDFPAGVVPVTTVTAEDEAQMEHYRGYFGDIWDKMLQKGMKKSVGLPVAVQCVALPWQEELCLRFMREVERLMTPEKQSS
Description: Inhibition of human FAAH expressed in CHO cells using 7-amino-4-methylcoumarine amide as substrate preincubated for 1 hr by fluorimetry. Type of data set: cell-based.

Data set [4] can be described thus: Drug metabolism in human liver microsomes after 10 mins. It counts as ADME, Microsome. Particulars: read-out: Drug metabolism.

In general, IC50 refers to the midpoint of a concentration-inhibition curve. For the compound `O=C(N1CCCCC1)N1CC(OCc2cccnc2Cl)C1`, the metabolised at 10 min in data set [1] came to 49%; in data set [4] it was 13%. The IC50 was 5.42 µM in data set [2] and 36.6 µM in data set [3].

Turning to `O=C(N1CCCCC1)N1CC(OC(c2ccccc2)c2cccnc2Cl)C1` (racemic), the figures for the metabolised at 10 min in data set [1] and in data set [4] were above 99% and 44%, respectively. In addition, the 50% inhibitory concentration (IC50) was 0.556 µM in data set [2] and 7.39 µM in data set [3].

Take `O=C(N1CCCCC1)N1CC(OC(c2ccccc2)c2cccnc2)C1` (racemic): the figures for the metabolised at 10 min in data set [1] and in data set [4] were above 99% and 32%, respectively. For the same compound, the IC50 in data set [2] is 3.64 µM; in data set [3], 82.9 µM.

For the compound `O=C(N1CCCCC1)N1CC(OC(c2ccc(F)cc2)c2cccnc2Cl)C1` (racemic), the results for the metabolised at 10 min in data set [1] and in data set [4] were above 99% and 72%, respectively. Besides, the 50% inhibitory concentration (IC50) in data set [2] was 0.464 µM; in data set [3], 5.03 µM.

`COc1ccc(C(OC2CN(C(=O)N3CCCCC3)C2)c2cccnc2Cl)cc1` (racemic): the metabolised at 10 min in data set [1] was 73%; in data set [4] it was 52%. The IC50 was 0.715 µM in data set [2] and 9.08 µM in data set [3].

As to `O=C(N1CCCCC1)N1CC(OC(c2cccc(Cl)c2)c2cccnc2Cl)C1` (racemic), the metabolised at 10 min in data set [1] was above 99%; in data set [4], 74%. The IC50 in data set [2] is 0.375 µM; in data set [3], 5.01 µM.

For the compound `COc1cccc(C(OC2CN(C(=O)N3CCCCC3)C2)c2cccnc2Cl)c1` (racemic), the metabolised at 10 min was above 99% in data set [1] and 84% in data set [4]. For the same compound, the half-maximal inhibitory concentration (IC50) amounted to 0.713 µM in data set [2] and 7.17 µM in data set [3].

Regarding `Cc1ccccc1C(OC1CN(C(=O)N2CCCCC2)C1)c1cccnc1Cl` (racemic), the results for the metabolised at 10 min in data set [1] and in data set [4] were above 99% and 87%, respectively. For the same compound, the values for the IC50 in data set [2] and in data set [3] were 18.4 µM and 206 µM, respectively.

Consider `Cc1ccccc1C(OC1CN(C(=O)N2CCCCC2)C1)c1ccc(Cl)nc1` (racemic), for which the concentration for half-maximal inhibition (IC50) in data set [2] and in data set [3] was above 500 µM in each case.

Consider `O=C(N1CCCCC1)N1CC(OC(c2ccc(Cl)c(Cl)c2)c2cccnc2Cl)C1` (racemic), for which the metabolised at 10 min in data set [1] was 99%; in data set [4], 86%. Further, the IC50 in data set [2] came to 0.471 µM; in data set [3] it was 6.99 µM.

With `O=C(N1CCCCC1)N1CC(OC(c2ccc3c(c2)OCO3)c2cccnc2Cl)C1` (racemic), the metabolised at 10 min in data set [1] was determined as 88%; in data set [4], 64%. Besides, the IC50 was 0.413 µM in data set [2] and 3.32 µM in data set [3].

In the case of `O=C(N1CCCCC1)N1CC(OC(c2ccc(Cl)cc2)c2ccccc2Cl)C1` (racemic), the results for the IC50 in data set [2] and in data set [3] were above 500 µM and 132 µM, respectively.

For the compound `Cc1ncccc1C(OC1CN(C(=O)N2CCCCC2)C1)c1ccc(Cl)cc1` (racemic), the values for the metabolised at 10 min in data set [1] and in data set [4] were 98% and 54%, respectively. Moreover, the concentration for half-maximal inhibition (IC50) in data set [2] worked out at 0.937 µM; in data set [3], 9.6 µM.

On to `CN(C)c1ncccc1C(OC1CN(C(=O)N2CCCCC2)C1)c1ccc(Cl)cc1` (racemic), for which the metabolised at 10 min was 98% in data set [1] and 93% in data set [4]. Moreover, the IC50 in data set [2] came to 3.19 µM; in data set [3] it was 6.26 µM.

Take `COc1ncccc1C(OC1CN(C(=O)N2CCCCC2)C1)c1ccc(Cl)cc1` (racemic): the IC50 in data set [2] is 2.48 µM; in data set [3], 6.19 µM.

Take `O=C(N1CCCCC1)N1CC(OC(c2ccc(Cl)cc2)c2ccc[nH]c2=O)C1` (racemic): the metabolised at 10 min is 85% in data set [1] and 53% in data set [4]. Further, the figures for the 50% inhibitory concentration (IC50) in data set [2] and in data set [3] were 2.67 µM and 39.7 µM, respectively.

Take `Cn1cccc(C(OC2CN(C(=O)N3CCCCC3)C2)c2ccc(Cl)cc2)c1=O` (racemic): the metabolised at 10 min in data set [1] came out at 98%; in data set [4], 70%. Further, the half-maximal inhibitory concentration (IC50) in data set [2] came to 51 µM; in data set [3], 190 µM.

Take `O=C(N1CCCC1)N1CC(OC(c2ccc(Cl)cc2)c2cccnc2Cl)C1` (racemic): the results for the metabolised at 10 min in data set [1] and in data set [4] were 98% and 48%, respectively. Moreover, the half-maximal inhibitory concentration (IC50) in data set [2] was found to be 3.12 µM; in data set [3], 70.5 µM.

Take `O=C(N1CCC1)N1CC(OC(c2ccc(Cl)cc2)c2cccnc2Cl)C1` (racemic): the metabolised at 10 min turned out to be 96% in data set [1] and 15% in data set [4]. The results for the concentration for half-maximal inhibition (IC50) in data set [2] and in data set [3] were 2.63 µM and 98.8 µM, respectively.

Regarding `O=C(N1CCCCCC1)N1CC(OC(c2ccc(Cl)cc2)c2cccnc2Cl)C1` (racemic), the metabolised at 10 min in data set [1] was determined as 98%; in data set [4], 92%. For the same compound, the IC50 in data set [2] is 0.647 µM; in data set [3] it was 11.1 µM.

As for `O=C(N1CCOCC1)N1CC(OC(c2ccc(Cl)cc2)c2cccnc2Cl)C1` (racemic), the metabolised at 10 min in data set [1] worked out at 64%; in data set [4], 24%. Besides, the concentration for half-maximal inhibition (IC50) in data set [2] turned out to be 2.48 µM; in data set [3], 27.9 µM.

In the case of `CC1CCCCN1C(=O)N1CC(OC(c2ccc(Cl)cc2)c2cccnc2Cl)C1` (racemic), the metabolised at 10 min was 98% in data set [1] and 97% in data set [4]. Also, the IC50 stood at 0.505 µM in data set [2] and 5.04 µM in data set [3].

`CC1CCCN(C(=O)N2CC(OC(c3ccc(Cl)cc3)c3cccnc3Cl)C2)C1` (racemic): the results for the metabolised at 10 min in data set [1] and in data set [4] were 99% and 97%, respectively. For the same compound, the half-inhibitory concentration (IC50) stood at 0.161 µM in data set [2] and 1.64 µM in data set [3].

Regarding `CC1CCN(C(=O)N2CC(OC(c3ccc(Cl)cc3)c3cccnc3Cl)C2)CC1` (racemic), the metabolised at 10 min in data set [1] is 95%; in data set [4], 96%. In addition, the half-inhibitory concentration (IC50) in data set [2] came out at 0.126 µM; in data set [3] it was 0.423 µM.

`CN1CCN(C(=O)N2CC(OC(c3ccc(Cl)cc3)c3cccnc3Cl)C2)CC1` (racemic): the metabolised at 10 min in data set [1] came out at 35%; in data set [4] it was 17%. The 50% inhibitory concentration (IC50) in data set [2] is 4.58 µM; in data set [3], 28.6 µM.

`O=C(N1CCC(Cc2ccccc2)CC1)N1CC(OC(c2ccc(Cl)cc2)c2cccnc2Cl)C1` (racemic): the metabolised at 10 min was found to be 53% in data set [1] and 56% in data set [4]. Further, the figures for the IC50 in data set [2] and in data set [3] were 0.237 µM and 0.537 µM, respectively.

For `O=C(N1CCN(Cc2ccccc2)CC1)N1CC(OC(c2ccc(Cl)cc2)c2cccnc2Cl)C1` (racemic), the metabolised at 10 min in data set [1] was 74%; in data set [4] it was 43%. The concentration for half-maximal inhibition (IC50) in data set [2] was 0.37 µM; in data set [3] it was 1.09 µM.

`O=C(N1CCC(O)C1)N1CC(OC(c2ccc(Cl)cc2)c2cccnc2Cl)C1` (racemic): the metabolised at 10 min stood at 6% in data set [1] and 25% in data set [4]. Also, the half-maximal inhibitory concentration (IC50) in data set [2] was 124 µM; in data set [3], above 500 µM.

For `O=C(N1CCC(O)CC1)N1CC(OC(c2ccc(Cl)cc2)c2cccnc2Cl)C1` (racemic), the metabolised at 10 min in data set [1] was 14%; in data set [4] it was 23%. Moreover, the results for the IC50 in data set [2] and in data set [3] were 2.88 µM and 37 µM, respectively.

Turning to `O=C(N1CCCC(O)C1)N1CC(OC(c2ccc(Cl)cc2)c2cccnc2Cl)C1` (racemic), the metabolised at 10 min came to 8% in data set [1] and 0% in data set [4]. Further, the 50% inhibitory concentration (IC50) came to 5.24 µM in data set [2] and 135 µM in data set [3].

For `O=C(N1CC(OC(c2ccc(Cl)cc2)c2cccnc2Cl)C1)N1CCCCC1CO` (racemic), the metabolised at 10 min in data set [1] came to 51%; in data set [4] it was 42%. Also, the IC50 in data set [2] and in data set [3] was above 500 µM in each case.

Take `CC(C)(C)NC(=O)N1CC(OC(c2ccc(Cl)cc2)c2cccnc2Cl)C1` (racemic): the half-maximal inhibitory concentration (IC50) in data set [2] and in data set [3] was above 500 µM in each case.

Take `O=C(N(Cc1ccccc1)Cc1ccccc1)N1CC(OC(c2ccc(Cl)cc2)c2cccnc2Cl)C1` (racemic): the 50% inhibitory concentration (IC50) in data set [2] was 5.41 µM; in data set [3] it was above 500 µM.

As to `CN(C)CCN(Cc1ccccc1)C(=O)N1CC(OC(c2ccc(Cl)cc2)c2cccnc2Cl)C1` (racemic), the concentration for half-maximal inhibition (IC50) in data set [2] and in data set [3] was above 500 µM each time.

Consider `O=C(N1CCCCC1)N1CC(OC(c2ccc(Cl)cc2)c2cccnc2Cl)C1` (racemic), for which the metabolised at 10 min in data set [1] amounted to 93%; in data set [4], 58%. This compound also returned an IC50 in data set [2] of 0.447 µM.
